Target: T1, sweet taste receptor (T1R2/T1R3) (Homo sapiens, UniProt Q7RTX0+Q8TE23)
T1 construct: endogenous in cells; host or cells: taste cells in the mouths of 3 trained human panelists (in vivo spitting test)
T1 sequence (Q8TE23 20-839): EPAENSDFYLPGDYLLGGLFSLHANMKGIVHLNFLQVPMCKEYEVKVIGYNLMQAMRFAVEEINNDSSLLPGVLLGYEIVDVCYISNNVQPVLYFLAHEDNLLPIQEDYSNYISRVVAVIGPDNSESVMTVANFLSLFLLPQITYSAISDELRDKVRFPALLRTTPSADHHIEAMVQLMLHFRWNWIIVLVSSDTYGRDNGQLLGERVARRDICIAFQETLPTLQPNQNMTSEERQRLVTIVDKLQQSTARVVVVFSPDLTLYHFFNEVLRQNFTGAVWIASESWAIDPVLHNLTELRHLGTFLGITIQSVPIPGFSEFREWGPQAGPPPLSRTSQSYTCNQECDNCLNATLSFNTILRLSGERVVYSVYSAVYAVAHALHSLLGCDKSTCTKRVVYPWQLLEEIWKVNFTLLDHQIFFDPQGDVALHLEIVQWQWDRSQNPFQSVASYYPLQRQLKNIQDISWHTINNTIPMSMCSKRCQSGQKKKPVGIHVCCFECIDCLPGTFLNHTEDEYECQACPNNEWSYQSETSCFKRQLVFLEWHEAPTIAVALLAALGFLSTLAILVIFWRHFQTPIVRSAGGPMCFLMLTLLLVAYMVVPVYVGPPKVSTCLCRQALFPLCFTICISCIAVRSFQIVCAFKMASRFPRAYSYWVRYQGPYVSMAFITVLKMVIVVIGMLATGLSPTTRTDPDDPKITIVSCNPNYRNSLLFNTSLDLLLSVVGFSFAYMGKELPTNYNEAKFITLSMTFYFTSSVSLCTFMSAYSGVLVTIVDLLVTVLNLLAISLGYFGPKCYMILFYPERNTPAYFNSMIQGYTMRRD
T1 sequence (Q7RTX0 21-852): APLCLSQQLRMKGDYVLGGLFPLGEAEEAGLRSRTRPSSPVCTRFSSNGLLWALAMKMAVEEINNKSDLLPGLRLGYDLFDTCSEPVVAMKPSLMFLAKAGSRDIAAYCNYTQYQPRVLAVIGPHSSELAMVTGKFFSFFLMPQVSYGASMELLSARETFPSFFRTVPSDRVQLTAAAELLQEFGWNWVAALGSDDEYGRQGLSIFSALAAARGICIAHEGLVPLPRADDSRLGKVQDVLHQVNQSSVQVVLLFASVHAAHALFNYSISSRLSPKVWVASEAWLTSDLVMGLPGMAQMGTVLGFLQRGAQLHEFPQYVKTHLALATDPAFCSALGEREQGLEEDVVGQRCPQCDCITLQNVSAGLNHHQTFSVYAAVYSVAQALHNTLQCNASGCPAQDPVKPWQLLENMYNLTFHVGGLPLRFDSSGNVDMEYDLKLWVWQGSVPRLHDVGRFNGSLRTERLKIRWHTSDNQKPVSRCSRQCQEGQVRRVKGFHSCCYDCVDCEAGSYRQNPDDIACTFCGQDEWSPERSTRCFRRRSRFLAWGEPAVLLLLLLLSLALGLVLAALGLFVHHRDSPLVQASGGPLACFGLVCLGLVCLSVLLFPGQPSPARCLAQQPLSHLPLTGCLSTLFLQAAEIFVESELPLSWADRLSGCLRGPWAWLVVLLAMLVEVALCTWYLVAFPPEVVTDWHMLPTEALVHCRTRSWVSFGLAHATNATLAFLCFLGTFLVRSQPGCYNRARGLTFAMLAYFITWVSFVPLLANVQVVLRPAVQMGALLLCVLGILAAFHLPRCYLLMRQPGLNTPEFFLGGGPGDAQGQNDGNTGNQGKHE
Test: Sensory evaluation of sweetness intensity (VAS) in the co-presence of sweet taste receptor inhibitor lactisole (Example 5)
Format: in vivo
Source text: Whether or not a certain sweet substance can trigger a sweetness response even if a sweetness response through the sweet taste receptor T1R2/T1R3 is inhibited may be determined by, for instance, measuring, by sensory evaluation or cell assay, the sweetness intensity of a solution (control solution), in which only the above sweet substance has been dissolved, and the sweetness intensity (remaining sweetness intensity) of a solution (test solution), in which a sweet taste receptor T1R2/T1R3 inhibitor (e.g., lactisole, gymnemic acid) is added for inhibiting a sweetness response through the sweet taste receptor T1R2/T1R3 to the control solution; and by comparing the sweetness intensity of the control solution and the sweetness intensity of the test solution.
The evaluation was carried out by those (3 persons) who received sensory trainings as panelists. […] Additionally, solutions having the same composition as sample solutions 1, 2, 3, and 4 except that lactisole was not added were used as control solutions 1, 2, 3, and 4. The sensory evaluation was carried out by spitting test. The sweetness intensity was rated by the VAS scale and calculated with the intensity of a solution to which lactisole was not added being 100% and the sweetness intensity of a solution to which lactisole was added as a relative value (%). The sweetness inhibitory effect by lactisole was verified by this.

O=C[C@@H](O)[C@H](O)[C@H](O)CO [D-Arabinose]
remaining sweetness intensity when 100 ppm of lactisole was added, compared with sucrose (100 ppm lactisole): equal to or more than that of sucrose
Sweetness intensity residual ratio (%) with addition of 100 ppm lactisole (lactisole-free solution = 100%, sucrose 8 w/v %, sucralose 149 ppm, D- or L-arabinose 13.3 w/v %, VAS, average of n=3): 42.47%

Source: patent US20240122212A1 (SUNTORY HOLDINGS LIMITED, priority 2020, published 2024)
